The results in this text go back to patent US9215877B2, “Compositions including a vacancy-engineered(VE)-ZnO nanocomposite, methods of making a composition , method of using a composition” (priority 2014, dated 2015).

The structures appear in SMILES notation.

The test system of the assay is E. coli. Kind of assay: Minimum inhibitory concentration (MIC) against E. coli. Type of assay: cell-based. As to conditions: Escherichia coli, read-out: MIC (μg/mL) in metallic Zn or Cu.

Take `O=C([O-])c1ccccc1O.[Na+]` [Capping Agent, sodium salicylate]: the MIC was found to be 3000 µg/mL.
